Data set [1] in a line: solubility in solvents (observation). The note with it: solvents as named in the value. The class given is physicochemical.
Data set [2] can be described thus: storage stability (observation). The class given is physicochemical.

Each structure is given as a SMILES string.

In the case of `CC(=O)CN1CCN(CC(C)=O)CCN(CC(=O)NCc2ccccc2)CC1` [Chelator 4, N-Benzyl-2-(4,7-bis(2-oxopropyl)-1,4,7-triazonan-1-yl)acetamide], in data set [1], the solubility result was “soluble in dimethyl sulfoxide”. Also, the storage stability entry in data set [2] (stored at 4 °C) is “stable at 4 °C for several weeks”.
For the compound `O=C(CN1CCN(CCO)CCN(CCO)CC1)NCc1ccccc1` [Chelator 3, N-Benzyl-2-(4,7-bis(2-hydroxyethyl)-1,4,7,-triazonan-1-yl)acetamide], the solubility result in data set [1] is “soluble in water, methanol, acetonitrile, and dimethyl sulfoxide”. Further, the storage stability result in data set [2] (stored at 4 °C) was “stable when stored at 4 °C for several weeks”.
Take `O=C(O)CN1CCN(CC(=O)O)CCN(CC(=O)NCc2ccccc2)CC1` [Chelator 5, 2,2′-(7-(2-(Benzylamino)-2-oxoethyl)-1,4,7-triazonane-1,4-diyl)diacetic Acid]: the solubility entry in data set [1] is “soluble in water, methanol, acetonitrile, and dimethyl sulfoxide”. Also, in data set [2] (room temperature), the storage stability result is on record as “stable at room temperature for several months”.
With `NC(=O)CN1CCN(CC(N)=O)CCN(CC(=O)NCc2ccccc2)CC1` [Chelator 2, 2,2′-(7-(2-(Benzylamino)-2-oxoethyl)-1,4,7-triazonane-1,4-diyl)diacetamide], the solubility result in data set [1] is “soluble in water, methanol, acetonitrile, and dimethyl sulfoxide”. The storage stability result in data set [2] (stored at 4 °C) is “stable when stored at 4 °C for several weeks”.
